Measurements reported in US20080269285A1, “Novel Compounds of the Family of Iminosugars, Uses Thereof for Trewating Lysosomal Diseases, and Method for Preparing Same” (CENTRE NATIONAL DE LA RECHERCHE SCIENTIFIQUE, priority 2005, published 2008).
Where two headings read alike, the source gives them in different places. Blank lines part the entries; values can stand above or below the compound they belong to.

Experiments:
rice α-glucosidase = target: T1, rice α-glucosidase (Oryza sativa subsp. japonica, UniProt Q653V7); experiment: Inhibition of rice α-glucosidase (disaccharide substrate, glucose colorimetry); assay type: biochemical; settings: rice enzyme
T1 construct: purchased Sigma Chemical Co
Text: (§1) The α-glucosidases of rice and of yeast, as well as the β-glucosidases of sweet almond and Caldocellum saccharolyticum are obtained from Sigma Chemical Co. ‘Brush border’ membranes prepared from rat small intestine according to Kessler's method (Kessler, M.; Acuto, O.; Strelli, C.; Murer, H.; Semenza, G. A. Biochem. Biophys. Acta 1978, 506, 136) were used as a source of intestinal maltase, sucrase and isomaltase. The activities of rice α-glucosidase as well as of the intestinal glucosidases were determined using an appropriate disaccharide as substrate. The D-glucose thus released was assayed by colorimetry using the Wako glucose B-test (Wako Pure Chemical Ind., Japan). The activities on the other glycosidases were determined using the appropriate p-nitrophenyl glycoside as a substrate with the optimum pH of each enzyme. The reaction is stopped by adding 400 mM Na2CO3. The p-nitrophenol thus released was assayed by spectrophotometry at 400 nm. For the β-glucocerebrosidase, the technique used is that described in Kato, A.; Kato, N.; Kano, E.; Adachi, I.; Ikeda, K.; Yu, L.; Okamoto, T.; Banba, Y.; Ouchi, H.; Takahata, H.; Asano, N. Biological properties of D- and L-1-deoxyazasugars. J. Med. Chem. 2005, 48, 2036-2044.

maltase = experiment: Inhibition of rat intestinal maltase; assay type: biochemical; settings: rat intestine; read-out: IC50 α-glucosidase maltase
Text: as §1

sucrase = target: T2, sucrase (Rattus norvegicus, UniProt P23739); experiment: Inhibition of rat intestinal sucrase; assay type: biochemical; settings: rat intestine; read-out: IC50 α-glucosidase sucrase
T2 construct: from tissue; host or cells: rat small intestine brush border membranes
Text: as §1

isomaltase = target: T3, isomaltase (Rattus norvegicus, UniProt P23739); experiment: Inhibition of rat intestinal isomaltase; assay type: biochemical; settings: rat intestine; read-out: IC50 α-glucosidase isomaltase
T3 construct: from tissue; host or cells: rat small intestine brush border membranes
Text: as §1

[1] = target: T4, human β-glucocerebrosidase (Homo sapiens, UniProt P04062); experiment: Inhibition tests on human β-glucocerebrosidase; assay type: biochemical; settings: for IC50: read-out: IC50 β-glucocérébrosidase
T4 sequence (P04062 40-536): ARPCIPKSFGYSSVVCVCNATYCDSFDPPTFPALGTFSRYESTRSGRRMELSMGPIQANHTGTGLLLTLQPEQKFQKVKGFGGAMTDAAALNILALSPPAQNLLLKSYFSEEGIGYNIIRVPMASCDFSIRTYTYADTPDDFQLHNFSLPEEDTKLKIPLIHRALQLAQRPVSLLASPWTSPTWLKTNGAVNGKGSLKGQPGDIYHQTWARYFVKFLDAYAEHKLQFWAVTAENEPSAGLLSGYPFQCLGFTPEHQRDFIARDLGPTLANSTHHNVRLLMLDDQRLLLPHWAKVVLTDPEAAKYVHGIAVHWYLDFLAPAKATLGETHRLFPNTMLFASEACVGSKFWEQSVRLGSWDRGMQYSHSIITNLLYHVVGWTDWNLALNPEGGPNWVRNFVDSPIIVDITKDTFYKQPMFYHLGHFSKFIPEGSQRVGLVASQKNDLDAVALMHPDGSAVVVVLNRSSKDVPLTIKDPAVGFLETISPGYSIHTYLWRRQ

[2] = target: β-glucosidase sweet almond; experiment: Inhibition of sweet almond β-glucosidase; assay type: biochemical
Text: as §1

[3] = target: T5, β-glucosidase Caldocellum saccharolyticum (Caldicellulosiruptor saccharolyticus, UniProt P10482); experiment: Inhibition of Caldocellum saccharolyticum β-glucosidase; assay type: biochemical
T5 construct: purchased Sigma Chemical Co
Text: as §1

α-glucosidases = experiment: Activity on the different α-glucosidases tested; assay type: biochemical
Text: as §1

β-glucocerebrosidase [4] = experiment: Intracellular β-glucocerebrosidase activity in type 1 Gaucher fibroblasts; assay type: cell-based, human; settings: factor of residual β-glucocerebrosidase activity, 10 nM
β-glucocerebrosidase [5] = experiment: Intracellular β-glucocerebrosidase activity in type 3 Gaucher fibroblasts; assay type: cell-based, human; settings: factor of residual β-glucocerebrosidase activity, 10 nM
[6] = system: human β-glucocerebrosidase; experiment: Intracellular β-glucocerebrosidase activity in fibroblasts of Gaucher patients (type 1, 2 or 3); assay type: cell-based; settings: fibroblasts type 1, 2 or 3; very low quantities
α-Glucosidase = target: T6, α-Glucosidase (Homo sapiens, UniProt P10253); experiment: α-Glucosidase activity in Gaucher fibroblasts; assay type: cell-based
T6 construct: endogenous in cells; host or cells: fibroblasts of Gaucher patients (type 1, 2, 3)
Experimental: (§2) The tests were carried out under the conditions described in: Sawkar, A. R.; Cheng, W.-C.; Beutler, E.; Wong, C.-H.; Balch, W. E.; Kelly, J. W. Chemical chaperones increase the cellular activity of N370S beta-glucosidase: a therapeutic strategy for Gaucher's disease. Proc. Natl. Acad. Sci. U.S.A. 2002, 99, 15428-15433.

α-Mannosidase = target: T7, α-Mannosidase (Homo sapiens, UniProt O00754); experiment: α-Mannosidase activity in Gaucher fibroblasts; assay type: cell-based
T7 construct: endogenous in cells; host or cells: fibroblasts of Gaucher patients (type 1, 2, 3)
T7 sequence (O00754 50-1011): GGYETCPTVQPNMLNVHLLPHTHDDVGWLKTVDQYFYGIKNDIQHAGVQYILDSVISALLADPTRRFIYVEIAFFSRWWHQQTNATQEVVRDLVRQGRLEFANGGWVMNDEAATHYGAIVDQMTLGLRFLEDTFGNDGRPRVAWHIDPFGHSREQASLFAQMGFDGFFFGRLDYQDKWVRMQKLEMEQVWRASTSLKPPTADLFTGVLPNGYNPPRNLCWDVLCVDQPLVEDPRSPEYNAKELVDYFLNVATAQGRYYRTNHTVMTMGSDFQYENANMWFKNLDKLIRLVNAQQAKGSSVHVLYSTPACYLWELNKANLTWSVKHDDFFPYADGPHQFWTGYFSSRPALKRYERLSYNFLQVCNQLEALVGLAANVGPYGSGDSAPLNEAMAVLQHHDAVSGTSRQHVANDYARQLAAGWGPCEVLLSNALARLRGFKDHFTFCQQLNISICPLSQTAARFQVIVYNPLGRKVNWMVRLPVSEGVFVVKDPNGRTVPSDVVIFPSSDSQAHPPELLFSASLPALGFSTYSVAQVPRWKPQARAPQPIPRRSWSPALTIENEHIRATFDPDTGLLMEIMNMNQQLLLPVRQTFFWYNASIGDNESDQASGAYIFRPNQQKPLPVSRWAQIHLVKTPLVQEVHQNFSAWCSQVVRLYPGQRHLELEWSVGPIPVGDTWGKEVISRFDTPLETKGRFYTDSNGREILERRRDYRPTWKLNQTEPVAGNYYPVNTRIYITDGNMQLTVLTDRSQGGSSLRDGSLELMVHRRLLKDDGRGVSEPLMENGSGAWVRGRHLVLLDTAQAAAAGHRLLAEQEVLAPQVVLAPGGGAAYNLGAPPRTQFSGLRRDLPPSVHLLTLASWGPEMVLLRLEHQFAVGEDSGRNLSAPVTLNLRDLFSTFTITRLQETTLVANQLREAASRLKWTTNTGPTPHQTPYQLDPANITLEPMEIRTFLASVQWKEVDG
Experimental: as §2

[7] = system: other lysosomal glycosidases; experiment: Effects on other lysosomal glycosidases in Gaucher fibroblasts; assay type: cell-based, human; settings: for Effects on the activity of other glycosidases: Gaucher fibroblasts, Table 2
[8] = type 2 Gaucher fibroblasts, 50 μM

T5 sequence (P10482 whole entry): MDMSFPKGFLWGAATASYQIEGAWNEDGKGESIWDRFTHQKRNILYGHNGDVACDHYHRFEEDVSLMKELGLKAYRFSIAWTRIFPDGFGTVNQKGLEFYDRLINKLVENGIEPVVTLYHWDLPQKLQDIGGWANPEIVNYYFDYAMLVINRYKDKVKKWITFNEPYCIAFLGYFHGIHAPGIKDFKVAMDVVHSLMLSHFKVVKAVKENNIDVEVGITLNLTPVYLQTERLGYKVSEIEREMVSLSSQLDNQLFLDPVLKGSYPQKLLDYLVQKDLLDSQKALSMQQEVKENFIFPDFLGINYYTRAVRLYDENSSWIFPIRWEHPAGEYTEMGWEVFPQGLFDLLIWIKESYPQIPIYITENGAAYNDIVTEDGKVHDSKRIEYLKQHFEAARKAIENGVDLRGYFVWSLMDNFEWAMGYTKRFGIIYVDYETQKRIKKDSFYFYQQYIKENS
T3 sequence (P23739 1-1013 limits assumed): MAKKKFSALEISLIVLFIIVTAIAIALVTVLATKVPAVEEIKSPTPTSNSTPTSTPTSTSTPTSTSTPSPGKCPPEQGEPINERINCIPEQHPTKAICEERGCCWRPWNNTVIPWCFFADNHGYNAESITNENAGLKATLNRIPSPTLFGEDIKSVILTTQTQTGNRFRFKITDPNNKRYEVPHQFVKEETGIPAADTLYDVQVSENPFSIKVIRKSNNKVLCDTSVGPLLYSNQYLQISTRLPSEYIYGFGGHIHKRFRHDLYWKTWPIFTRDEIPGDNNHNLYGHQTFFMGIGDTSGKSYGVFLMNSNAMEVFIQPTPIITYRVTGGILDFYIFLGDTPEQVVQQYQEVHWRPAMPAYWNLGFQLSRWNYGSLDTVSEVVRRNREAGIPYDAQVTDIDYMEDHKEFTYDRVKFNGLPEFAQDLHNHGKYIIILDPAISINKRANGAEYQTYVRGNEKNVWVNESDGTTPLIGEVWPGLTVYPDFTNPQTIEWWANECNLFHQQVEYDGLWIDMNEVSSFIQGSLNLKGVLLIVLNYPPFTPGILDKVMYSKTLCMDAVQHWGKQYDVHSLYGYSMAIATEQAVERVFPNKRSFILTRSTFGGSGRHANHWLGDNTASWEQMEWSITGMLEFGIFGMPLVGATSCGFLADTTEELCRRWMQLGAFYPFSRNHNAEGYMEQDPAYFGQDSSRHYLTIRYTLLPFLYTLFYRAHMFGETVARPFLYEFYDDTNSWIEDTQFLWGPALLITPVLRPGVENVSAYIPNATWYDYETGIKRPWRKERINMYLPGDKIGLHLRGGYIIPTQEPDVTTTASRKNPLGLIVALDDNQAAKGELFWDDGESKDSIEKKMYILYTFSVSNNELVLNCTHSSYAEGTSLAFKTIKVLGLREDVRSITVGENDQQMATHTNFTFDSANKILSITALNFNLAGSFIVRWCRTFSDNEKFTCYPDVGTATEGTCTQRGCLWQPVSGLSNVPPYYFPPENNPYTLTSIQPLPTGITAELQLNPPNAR
T3 sequence (P23739 1014-1841 limits assumed): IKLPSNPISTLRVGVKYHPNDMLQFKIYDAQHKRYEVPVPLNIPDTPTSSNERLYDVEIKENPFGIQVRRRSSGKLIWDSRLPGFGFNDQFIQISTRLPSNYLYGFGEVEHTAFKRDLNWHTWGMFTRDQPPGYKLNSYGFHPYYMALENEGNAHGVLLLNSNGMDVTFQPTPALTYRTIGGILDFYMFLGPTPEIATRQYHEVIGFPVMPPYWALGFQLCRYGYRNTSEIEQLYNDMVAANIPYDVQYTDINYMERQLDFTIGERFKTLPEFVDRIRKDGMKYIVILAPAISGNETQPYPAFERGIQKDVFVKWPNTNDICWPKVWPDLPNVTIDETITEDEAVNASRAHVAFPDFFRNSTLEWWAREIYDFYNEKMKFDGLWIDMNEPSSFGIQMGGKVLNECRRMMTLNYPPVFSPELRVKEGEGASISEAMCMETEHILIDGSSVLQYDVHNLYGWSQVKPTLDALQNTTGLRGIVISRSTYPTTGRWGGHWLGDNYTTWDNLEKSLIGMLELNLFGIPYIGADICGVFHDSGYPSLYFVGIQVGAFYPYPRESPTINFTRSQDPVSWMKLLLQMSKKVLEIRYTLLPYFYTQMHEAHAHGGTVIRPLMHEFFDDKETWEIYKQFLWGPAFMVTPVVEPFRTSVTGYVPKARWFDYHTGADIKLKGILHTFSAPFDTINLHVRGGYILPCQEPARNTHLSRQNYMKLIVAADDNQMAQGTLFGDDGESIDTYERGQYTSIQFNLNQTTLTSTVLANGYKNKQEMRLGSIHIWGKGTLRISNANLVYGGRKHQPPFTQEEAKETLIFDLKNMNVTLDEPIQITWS
T2 sequence (P23739 1-1013 limits assumed): as the sequence (P23739 1-1013 limits assumed) above
T2 sequence (P23739 1014-1841 limits assumed): as the sequence (P23739 1014-1841 limits assumed) above
T1 sequence (Q653V7 34-885): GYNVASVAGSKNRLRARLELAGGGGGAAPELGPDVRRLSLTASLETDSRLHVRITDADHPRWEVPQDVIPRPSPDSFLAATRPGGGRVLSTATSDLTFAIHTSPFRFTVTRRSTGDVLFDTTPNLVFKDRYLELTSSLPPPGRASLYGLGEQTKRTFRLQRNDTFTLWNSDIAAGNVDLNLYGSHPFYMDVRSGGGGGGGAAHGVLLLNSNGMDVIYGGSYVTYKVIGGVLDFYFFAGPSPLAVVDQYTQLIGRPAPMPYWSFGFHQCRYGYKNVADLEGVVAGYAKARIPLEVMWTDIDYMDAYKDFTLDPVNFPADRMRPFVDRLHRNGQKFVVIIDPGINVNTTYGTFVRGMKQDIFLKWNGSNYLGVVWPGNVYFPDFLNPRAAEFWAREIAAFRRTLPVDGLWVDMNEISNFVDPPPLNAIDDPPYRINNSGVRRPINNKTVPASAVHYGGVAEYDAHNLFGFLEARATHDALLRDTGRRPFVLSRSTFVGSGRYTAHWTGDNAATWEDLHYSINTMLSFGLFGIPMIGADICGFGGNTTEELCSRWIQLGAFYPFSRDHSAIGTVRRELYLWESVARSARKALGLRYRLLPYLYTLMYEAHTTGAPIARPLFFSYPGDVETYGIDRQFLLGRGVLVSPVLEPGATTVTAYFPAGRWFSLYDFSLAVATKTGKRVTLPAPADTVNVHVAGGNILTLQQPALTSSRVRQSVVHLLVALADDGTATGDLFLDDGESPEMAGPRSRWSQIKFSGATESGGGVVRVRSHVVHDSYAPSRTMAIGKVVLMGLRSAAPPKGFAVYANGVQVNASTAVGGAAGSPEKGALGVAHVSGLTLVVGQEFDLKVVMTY

- IC50 (rice α-glucosidase): > 1000 µM
- IC50 (maltase): > 1000 µM
- IC50 (sucrase): > 1000 µM
- IC50 (isomaltase): > 1000 µM
- IC50 ([1]; human enzyme): 0.0068 µM
- times more active than N-nonyl-1-deoxynojirimycin 2′ ([1]; human β-glucocerebrosidase): 150 times
- Ki ([1]; read-out: inhibition constant (Ki) human β-glucocerebrosidase): 0.002 µM
- IC50 [2]: 1.9 µM
- IC50 [3]: 800 µM
- residual enzymatic activity of human β-glucocerebrosidase [6]: double
- α-Glucosidases inhibition (α-Glucosidase; type 1-3 Gaucher fibroblasts): no inhibition
- α-Mannosidase inhibition (α-Mannosidase; type 1-3 Gaucher fibroblasts): no inhibition
Compound: CCCCCCCCC[C@H]1NC[C@@H](O)[C@H](O)[C@H]1O [Compound 1′a, α-1-C-nonyliminoxylitol]
- activity on the different α-glucosidases tested (α-glucosidases): no activity
- Increase in the enzymatic activity (type 1 fibroblasts) (β-glucocerebrosidase [4]): 1.8
- Increase in the enzymatic activity (type 1 fibroblasts) (β-glucocerebrosidase [4]; listed as drawing 105): ×1.8 to 10 nM
- Increase in the enzymatic activity (type 3 fibroblasts) (β-glucocerebrosidase [5]): 1.9
- Increase in the enzymatic activity (type 3 fibroblasts) (β-glucocerebrosidase [5]; listed as drawing 105): ×1.9 to 10 nM
- action on other lysosomal glycosidases ([7]; 10 nM): without inhibiting the action of other lysosomal glycosidases
- Effects on the activity of other glycosidases [7]: No effect

Compound: CCCCCCCCCN1C[C@H](O)[C@@H](O)[C@H](O)[C@H]1CO [2′, N-nonyl-1-deoxynojirimycin, reference compound]
- IC50 (rice α-glucosidase): 0.08 µM
- IC50 (maltase): 1.3 µM
- IC50 (sucrase): 0.66 µM
- IC50 (isomaltase): 0.23 µM
- IC50 [2]: 150 µM
- IC50 [3]: 80 µM
- inhibition at 50 µM (α-Glucosidase; type 1 Gaucher fibroblasts, 50 μM): 70%
- α-Glucosidase inhibition (α-Glucosidase; [8]): significant inhibition
- α-Glucosidase inhibition (α-Glucosidase; type 3 Gaucher fibroblasts): significant inhibition
- α-Mannosidase inhibition (α-Mannosidase; type 1 Gaucher fibroblasts): slight inhibition
- α-Mannosidase inhibition (α-Mannosidase; [8]): slight inhibition
- α-Mannosidase inhibition (α-Mannosidase; type 3 Gaucher fibroblasts): no inhibition
- Effects on the activity of other glycosidases [7]: Marked effects

- Ki ([1]; human enzyme, Table 1, read-out: value of Ki β-glucocérébrosidase (in brackets)): 0.031 µM
- IC50 ([1]; human enzyme): 0.012 µM
Compound: CCCCCCCCCCCC[C@H]1NC[C@@H](O)[C@H](O)[C@H]1O [Compound 1′b]
